A short description of data set [1]: Stability assay in buffer (pH 1 and pH 6), LC-MS/MS. The format is physicochemical. The method, then: (§1) A stock solution of the compound will be prepared in dimethylsulfoxide (DMSO) at 10 mM concentration. This stock solution will be serially diluted in DMSO to get stock solutions of 5, 2.5, 1.25, 0.625, 0.312, 0.156, and 0.078 mM. Working solutions of compound at a range of concentrations (100, 50, 25, 12.5, 6.25, 3.12, 1.56, and 0.78 μM) will be prepared in different buffers (pH 1 and 6).
(§2) In a 100 mL bottle, 33.5 mL of 0.2 M hydrochloric acid solution will be added to 12.5 mL of 0.2 M potassium chloride solution and diluted to […] with Milli-Q® water. The pH of the buffer solution will be adjusted to 1.0 with 0.2 M HCl solution and finally, volume will be made to 100 mL with Milli-Q® water.
(§3) In a 100 mL bottle, 6.15 mL of 0.2 M disodium hydrogen phosphate (dibasic) and 43.85 mL of 0.2 M sodium dihydrogen phosphate (monobasic) solution will be added. The pH of the buffer solution will be adjusted to 6.0 using the phosphate solutions. The volume will be made to 100 mL with Milli-Q® water.
The study will be performed in a 96-well deep well plate by spiking 10 μL of stock solutions into 990 μL buffer and 100 μL aliquots will be withdrawn at 0 and 120 min. The aliquots will be collected in centrifuge tubes containing 100 μL of acetonitrile. To the quenched samples, internal standard will be added and they will be taken for analysis using LC-MS/MS spectrometry. The experiments will be performed in duplicate in an orbital shaker maintained at 37° C. at 60 rpm.
(§4) The samples will be analysed for BC3005 using a fit-for-purpose LC-MS/MS method. If the sample concentration is above upper limit of quantification, the samples will be diluted and read against the calibration curve.
(§5) The concentration in samples will be determined against the calibration curve by using the following equation: Y=mX+C

A short description of data set [2]: Pharmacokinetics of Compound 10 (prodrug) and estimation of Compound 1 (parent) following oral and intravenous administration. As to conditions: for Vd / AUC(0-inf) / AUC(0-t) / clearance / half-life / MRT last: male, Sprague Dawley; for Vd: rat, plasma, iv, 1.28 mg/kg; for AUC(0-inf) / AUC(0-t) / clearance / half-life / MRT last / AUCExtra / Co: rat plasma; for AUC(0-inf) / AUC(0-t) / clearance / half-life / MRT last / AUCExtra: IV 1.28 mg/kg sodium salt of compound 10; for MRT last: read-out: MRT0-last; for Co: IV 1.28 mg/kg sodium salt of compound 10, mean concentration data. The format is in vivo, Male Sprague Dawley Rats. An excerpt: Pharmacokinetics of Compound 10 (Prodrug) and Estimation of Compound 1 (Parent) Following Oral and Intravenous Administration in Male Sprague Dawley Rats

The nature of data set [3]: Solubility assay in buffer (pH 1 and pH 6), LC-MS/MS. The format is physicochemical. The method, then: as §1, §2, §3
The study will be performed in a 96-well deep well plate by spiking 10 μL stock solutions into 990 μL buffer. Spiked buffer samples will be maintained at room temperature for 2 h. Incubations will be performed in duplicates. The plate will be centrifuged at 4000 rpm for 20 min at room temperature to enable the insoluble particles/precipitates to settle down. The supernatant will be diluted 1:1 with acetonitrile and internal standard will be added. The samples will be analyzed using LC-MS/MS.
as §4, §5

Data set [4] can be described thus: Mouse PK study with Compound 24. Particulars: in vivo; for bioavailability: nominal doses and AUClast of IV (1 mg/kg) and PO (10 mg/kg) used. An excerpt: Mouse PK Study with Compound 24 Summary of Pharmacokinetic Parameters of Compound 24 and Tegavivint: […]
The mark [5] stands for this setting: IV 1.28 mg/kg sodium salt of compound 10, read-out: Vd.
The mark [6] stands for this setting: IV 1.28 mg/kg sodium salt of compound 10, read-out: Vdss.
The mark [7] stands for this setting: aqueous buffer pH 1, simulated gastric fluid, kinetic from dmso stock, pH 1, room temperature.
[8] abbreviates: aqueous buffer pH 6, aqueous buffer, kinetic from dmso stock, pH 6, room temperature.
[9] abbreviates: IV 1 mg/kg Compound 24, read-out: T½ (converted).
[10] abbreviates: PO 10 mg/kg Compound 24, read-out: C0/Cmax.

Results on 8 compounds are retold here after US9963475B2, “Anthracene-9, 10-dione dioxime compound prodrugs and their uses” (Beta Cat Pharmaceuticals, Inc., priority 2015, dated 2018).

Counter-ions that a name gives are not always drawn. Like-named read-outs stand apart in the source and are kept apart here. Bounds are passed on as bounds.

For the compound `C[C@@H]1C[C@H](C)CN(S(=O)(=O)c2ccc3c(c2)C(=NO)c2cc(S(=O)(=O)N4C[C@H](C)C[C@H](C)C4)ccc2C3=NOCOP(=O)(O)O)C1` [Compound 10, ((((9E,10E)-3,6-bis(((3S,5R)-3,5-dimethylpiperidin-1-yl)sulfonyl)-10-(hydroxyimino)anthracen-9(10H)-ylidene)amino)-oxy)methyl dihydrogen phosphate], the “% Compound remaining at 120 min” value in data set [1] (pH 1, 37° C.) was 101%. For the same compound, the “% Compound remaining at 120 min” value in data set [1] (pH 6, 37° C.) was 79%. Moreover, the Vd in data set [2] (setting [5]) is 3.31 L/kg. In data set [2] (setting [6]), the Vd was 0.39 L/kg. In addition, in data set [2], the AUC(0-inf) was 885 ng·h/mL, the AUC(0-t) was 869 ng·h/mL, the clearance is 24.1 mL/min/kg and the half-life was 1.59 h. Moreover, in data set [2], the MRT last was 0.15 h, the AUCExtra is given as 1.81% and the Co is given as 11437.00 ng/mL. In addition, in data set [3] (setting [7]), the solubility at 2 h is under 0.78 µM. The same compound showed a solubility at 2 h in data set [3] (setting [8]) of under 0.78 µM.

In the case of `CCC(C)C(N)C(=O)OCON=C1c2cc(S(=O)(=O)N3C[C@H](C)C[C@H](C)C3)ccc2C(=NO)c2ccc(S(=O)(=O)N3C[C@H](C)C[C@H](C)C3)cc21` (stereo partly drawn) [Compound 38, ((((9E,10E)-2,7-bis(((3S,5R)-3,5-dimethylpiperidin-1-yl)sulfonyl)-10-(hydroxyimino)anthracen-9(10H)-ylidene)amino)oxy)methyl 2-amino-3-methylpentanoate], the “% Compound remaining at 120 min” value in data set [1] (pH 1, 37° C.) came to 85%; in data set [1] (pH 6, 37° C.) it was 96%. Besides, the solubility at 2 h in data set [3] (setting [7]) and in data set [3] (setting [8]) was under 0.78 µM in each case.

On to `C[C@@H]1C[C@H](C)CN(S(=O)(=O)c2ccc3c(c2)C(=NO)c2cc(S(=O)(=O)N4C[C@H](C)C[C@H](C)C4)ccc2C3=NO)C1` [Compound 1, (9E,10E)-2,7-bis(((3R,5S)-3,5-dimethylpiperidin-1-yl)sulfonyl)anthracene-9,10-dione dioxime, reference compound], for which, in data set [4] (IV 1 mg/kg Compound 24), the AUC(0-inf) stood at 873 ng·h/mL, the AUC(0-t) was found to be 752 ng·h/mL and the MRT inf turned out to be 10.5 h. Moreover, the half-life in data set [4] (setting [9]) is 9.39 h. For the same compound, in data set [4] (PO 10 mg/kg Compound 24), the AUC(0-t) came out at 229 ng·h/mL and the Tmax is 1 h. The Cmax in data set [4] (setting [10]) was 52.5 ng/mL. Further, the bioavailability in data set [4] turned out to be 3%. Moreover, in data set [2] (setting [5]), the Vd was 16.9 L/kg. Moreover, the Vd in data set [2] (setting [6]) was 15 L/kg. In data set [2], the AUC(0-inf) is 446 ng·h/mL, the AUC(0-t) was 396 ng·h/mL, the clearance is 48.3 mL/min/kg and the half-life is 4 h. In data set [2], the MRT last is 3.56 h, the AUCExtra is listed as 11.19% and the Co is reported as 116.31 ng/mL.

For `CC(C)[C@H](N)C(=O)OCON=C1c2cc(S(=O)(=O)N3C[C@H](C)C[C@H](C)C3)ccc2C(=NO)c2ccc(S(=O)(=O)N3C[C@H](C)C[C@H](C)C3)cc21.Cl` [Compound 43, ((((9E,10E)-2,7-bis(((3R,5S)-3,5-dimethylpiperidin-1-yl)sulfonyl)-10-(hydroxyimino)anthracen-9(10H)-ylidene)amino)-oxy)methylvalinate hydrochloride], the “% Compound remaining at 120 min” value in data set [1] (pH 1, 37° C.) is on record as 90%; in data set [1] (pH 6, 37° C.), 128%. The solubility at 2 h in data set [3] (pH 1, room temperature) is under 0.78 µM; in data set [3] (pH 6, room temperature) it was under 0.78 µM.

Consider `CCC(C)C(N)C(=O)OCON=C1c2ccc(S(=O)(=O)N3C[C@H](C)C[C@H](C)C3)cc2C(=NO)c2cc(S(=O)(=O)N3C[C@H](C)C[C@H](C)C3)ccc21` (stereo partly drawn) [Compound 24, ((((9E,10E)-3,6-bis(((3R,5S)-3,5-dimethylpiperidin-1-yl)sulfonyl)-10-(hydroxyimino)anthracen-9(10H)-ylidene)amino)oxy)methyl 2-amino-3-methylpentanoate dihydrochloride], for which the AUC(0-inf) was determined as 379 ng·h/mL in data set [4] (IV 1 mg/kg Compound 24) and 78.2 ng·h/mL in data set [4] (PO 10 mg/kg Compound 24). Besides, the AUC(0-t) was 376 ng·h/mL in data set [4] (IV 1 mg/kg Compound 24) and 60.5 ng·h/mL in data set [4] (PO 10 mg/kg Compound 24). Besides, the MRT inf in data set [4] (IV 1 mg/kg Compound 24) was found to be 0.476 h; in data set [4] (PO 10 mg/kg Compound 24), 1.36 h. The clearance in data set [4] (IV 1 mg/kg Compound 24) worked out at 43.9 mL/min/kg. In addition, the Cmax in data set [4] (IV 1 mg/kg Compound 24, C0 back extrapolated concentration at time zero) is 2370 ng/mL; in data set [4] (setting [10]), 60.7 ng/mL. The half-life in data set [4] (setting [9]) was 0.748 h; in data set [4] (PO 10 mg/kg Compound 24, read-out: T½ (converted)), 0.873 h. Besides, the Vd in data set [4] (IV 1 mg/kg Compound 24, read-out: VSS) worked out at 1.25 L/kg. For the same compound, the Tmax in data set [4] (PO 10 mg/kg Compound 24) amounted to 0.25 h. Further, in data set [4], the bioavailability stood at 2%. For the same compound, the “% Compound remaining at 120 min” value in data set [1] (pH 1, 37° C.) was found to be 101%; in data set [1] (pH 6, 37° C.), 93%. For the same compound, the solubility at 2 h in data set [3] (setting [7]) is over 100 µM; in data set [3] (setting [8]), under 0.78 µM.

`C[C@@H]1C[C@H](C)CN(S(=O)(=O)c2ccc3c(c2)C(=NOCOC(=O)C(N)C(C)(C)C)c2cc(S(=O)(=O)N4C[C@H](C)C[C@H](C)C4)ccc2C3=NO)C1` (stereo partly drawn) [Compound 46, ((((9E,10E)-2,7-bis(((3R,5S)-3,5-dimethyl-piperidin-1-yl)sulfonyl)-10-(hydroxyimino)anthracen-9(10H)-ylidene)amino)oxy)methyl-2-amino-3,3-dimethylbutanoate]: the “% Compound remaining at 120 min” value in data set [1] (pH 1, 37° C.) is on record as 93%; in data set [1] (pH 6, 37° C.), 97%. The solubility at 2 h is under 0.78 µM in data set [3] (pH 1, room temperature) and under 0.78 µM in data set [3] (pH 6, room temperature).

In the case of `C[C@@H]1C[C@H](C)CN(S(=O)(=O)c2ccc3c(c2)C(=NO)c2cc(S(=O)(=O)N4C[C@H](C)C[C@H](C)C4)ccc2C3=NOP(=O)(O)O)C1` [Compound 4, ((((9E,10E)-3,6-bis(((3R,5S)-3,5-dimethylpiperidin-1-yl)sulfonyl)-10-(hydroxyimino)-anthracen-9(10H)-ylidene)amino)oxy)phosphonic acid], the “% Compound remaining at 120 min” value in data set [1] (pH 1, 37° C.) stood at 96%; in data set [1] (pH 6, 37° C.), 101%. Besides, the solubility at 2 h in data set [3] (setting [7]) is under 0.78 µM; in data set [3] (setting [8]) it was over 100 µM.

`CC(C)C[C@H](N)C(=O)OCON=C1c2ccc(S(=O)(=O)N3C[C@H](C)C[C@H](C)C3)cc2C(=NO)c2cc(S(=O)(=O)N3C[C@H](C)C[C@H](C)C3)ccc21.Cl` [Compound 41, ((((9E,10E)-3,6-bis(((3R,5S)-3,5-dimethylpiperidin-1-yl)sulfonyl)-10-(hydroxyimino)anthracen-9(10H)-ylidene)amino)oxy)methyl leucinate hydrochloride]: the “% Compound remaining at 120 min” value in data set [1] (pH 1, 37° C.) is listed as 98%; in data set [1] (pH 6, 37° C.), 76%. Besides, the solubility at 2 h in data set [3] (pH 1, room temperature) is given as under 0.78 µM; in data set [3] (pH 6, room temperature), under 0.78 µM.

Usually AUC(0-inf) stands for the area under the concentration-time curve extrapolated to infinity. For orientation: AUC(0-t) means exposure summed from dosing to a finite time, without extrapolation to infinity. One may read the solubility as how much of the substance goes into solution per volume. Low readings indicate little dissolved substance, high ones much dissolved substance. A word on the MRT inf: it is a mean duration of stay, worked out from the concentration-time curve. What is called Tmax is the time from dosing to the highest level. In general, bioavailability refers to the share of a dose that reaches the circulation, judged against a reference dose that is usually intravenous.
